Among the data in patent US20250346616A1 (DIZAL (JIANGSU) PHARMACEUTICAL CO., LTD., priority 2022, published 2025) are IC50 values, retold here.

One experiment has as its target Recombinant ROCK2 (Homo sapiens (Human), UniProt O75116). The experiment is described as follows: Lance Ultra Kinase Assay, ROCK2 inhibition. It counts as biochemical. The following applies: ATP at Km, 30 min pre-incubation, 1 h reaction.
Another experiment concerns the target Recombinant ROCK1 (Homo sapiens (Human), UniProt Q13464). The experiment is described as follows: Lance Ultra Kinase Assay, ROCK1 inhibition. To be noted: ATP at Km, 30 min pre-incubation, 1 h reaction. It counts as biochemical.

The structures appear in SMILES notation.

Chain of Recombinant ROCK2 (O75116 whole entry): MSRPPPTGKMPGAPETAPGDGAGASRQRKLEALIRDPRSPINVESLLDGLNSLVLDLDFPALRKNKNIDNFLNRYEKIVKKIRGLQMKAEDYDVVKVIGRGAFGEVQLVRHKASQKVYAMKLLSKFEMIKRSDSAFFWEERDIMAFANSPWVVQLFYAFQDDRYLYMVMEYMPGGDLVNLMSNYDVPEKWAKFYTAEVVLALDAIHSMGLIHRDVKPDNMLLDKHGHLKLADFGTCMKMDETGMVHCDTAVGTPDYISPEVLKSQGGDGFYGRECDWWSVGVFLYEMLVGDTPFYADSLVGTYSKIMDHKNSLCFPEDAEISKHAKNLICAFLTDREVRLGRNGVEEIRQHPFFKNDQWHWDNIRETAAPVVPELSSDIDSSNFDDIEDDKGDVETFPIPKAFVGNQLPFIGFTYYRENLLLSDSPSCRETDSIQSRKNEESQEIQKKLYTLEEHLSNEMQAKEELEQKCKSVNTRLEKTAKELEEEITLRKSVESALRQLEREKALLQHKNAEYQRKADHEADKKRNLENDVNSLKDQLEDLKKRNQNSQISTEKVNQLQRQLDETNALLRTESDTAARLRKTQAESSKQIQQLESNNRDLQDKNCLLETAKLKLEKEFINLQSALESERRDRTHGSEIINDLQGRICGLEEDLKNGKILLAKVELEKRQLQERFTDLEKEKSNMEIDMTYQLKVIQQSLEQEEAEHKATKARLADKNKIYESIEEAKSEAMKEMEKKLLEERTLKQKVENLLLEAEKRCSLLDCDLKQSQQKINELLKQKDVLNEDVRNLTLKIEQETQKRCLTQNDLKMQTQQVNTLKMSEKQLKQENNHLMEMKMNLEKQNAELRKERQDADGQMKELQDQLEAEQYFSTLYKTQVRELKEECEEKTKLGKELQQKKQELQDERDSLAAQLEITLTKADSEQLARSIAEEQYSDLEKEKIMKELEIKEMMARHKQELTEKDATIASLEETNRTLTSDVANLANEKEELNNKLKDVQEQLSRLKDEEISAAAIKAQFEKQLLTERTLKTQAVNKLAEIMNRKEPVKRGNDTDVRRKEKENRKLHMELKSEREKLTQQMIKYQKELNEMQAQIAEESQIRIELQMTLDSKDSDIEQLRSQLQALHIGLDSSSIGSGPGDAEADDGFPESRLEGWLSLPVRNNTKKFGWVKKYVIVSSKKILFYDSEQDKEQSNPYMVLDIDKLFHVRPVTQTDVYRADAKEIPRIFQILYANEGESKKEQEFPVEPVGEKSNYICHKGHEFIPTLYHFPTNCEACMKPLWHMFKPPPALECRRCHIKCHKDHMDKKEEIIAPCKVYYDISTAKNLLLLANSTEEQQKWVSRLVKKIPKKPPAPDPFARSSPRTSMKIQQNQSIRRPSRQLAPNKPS
Chain of Recombinant ROCK1 (Q13464 whole entry): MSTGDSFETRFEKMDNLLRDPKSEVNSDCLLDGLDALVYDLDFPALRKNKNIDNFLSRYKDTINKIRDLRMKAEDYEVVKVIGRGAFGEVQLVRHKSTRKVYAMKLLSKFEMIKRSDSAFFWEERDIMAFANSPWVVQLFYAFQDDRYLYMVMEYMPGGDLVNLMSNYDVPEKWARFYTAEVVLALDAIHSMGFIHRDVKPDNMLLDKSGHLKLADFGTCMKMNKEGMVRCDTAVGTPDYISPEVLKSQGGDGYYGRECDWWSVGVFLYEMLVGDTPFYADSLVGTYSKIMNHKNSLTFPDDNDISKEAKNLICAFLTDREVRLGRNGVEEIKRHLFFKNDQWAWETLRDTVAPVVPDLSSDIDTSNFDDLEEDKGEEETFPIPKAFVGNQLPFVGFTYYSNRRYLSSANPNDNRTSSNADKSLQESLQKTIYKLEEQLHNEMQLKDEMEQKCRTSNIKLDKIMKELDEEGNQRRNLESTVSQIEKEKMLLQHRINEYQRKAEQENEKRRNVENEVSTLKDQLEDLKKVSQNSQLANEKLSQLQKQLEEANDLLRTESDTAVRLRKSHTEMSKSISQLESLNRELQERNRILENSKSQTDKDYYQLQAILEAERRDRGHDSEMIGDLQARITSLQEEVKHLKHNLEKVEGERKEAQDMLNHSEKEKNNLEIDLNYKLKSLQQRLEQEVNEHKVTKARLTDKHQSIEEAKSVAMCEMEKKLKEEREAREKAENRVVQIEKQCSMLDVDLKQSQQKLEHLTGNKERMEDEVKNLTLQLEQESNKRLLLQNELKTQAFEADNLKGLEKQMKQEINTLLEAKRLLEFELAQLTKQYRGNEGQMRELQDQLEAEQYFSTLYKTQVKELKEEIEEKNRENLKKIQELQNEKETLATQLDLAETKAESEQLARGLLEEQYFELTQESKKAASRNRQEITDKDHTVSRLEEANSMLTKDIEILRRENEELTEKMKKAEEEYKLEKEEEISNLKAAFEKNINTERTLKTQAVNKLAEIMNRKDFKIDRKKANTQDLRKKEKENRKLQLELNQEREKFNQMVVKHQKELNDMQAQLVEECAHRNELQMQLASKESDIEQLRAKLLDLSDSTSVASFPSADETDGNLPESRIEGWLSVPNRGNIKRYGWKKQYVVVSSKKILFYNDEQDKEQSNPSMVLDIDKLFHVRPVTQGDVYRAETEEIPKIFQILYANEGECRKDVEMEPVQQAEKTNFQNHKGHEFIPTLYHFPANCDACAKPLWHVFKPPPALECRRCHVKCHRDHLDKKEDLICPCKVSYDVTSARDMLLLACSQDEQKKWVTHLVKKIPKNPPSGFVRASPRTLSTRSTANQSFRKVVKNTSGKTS
Protocol for Recombinant ROCK1: (§1) The inhibition potency of compounds against these enzymes was assessed using Lance Ultra Kinase Assay. In brief, recombinant kinases were pre-incubated in the presence or absence of compound at room temperature for 30 minutes. The reaction was initiated by the addition of the ATP (Km) and substrate peptide which could be phosphorylated by kinases in the reaction. After 1 h incubation, the reaction was stopped by the addition of the detection reagent mix containing EDTA. The fluorescence was measured at 615 nm and 665 nm, respectively with excitation wavelength at 320 nm. The calculated signal ratio of 665 nm/615 nm is proportional to the kinase activity.
Protocol for Recombinant ROCK2: as §1

By IC50 is commonly meant the midpoint of a concentration-inhibition curve. With `NCC(C(=O)Nc1cccc2c(-c3cn[nH]c3)c[nH]c12)c1ccc(CO)cc1` (racemic) [Example 1, N-(3-(1H-pyrazol-4-yl)-1H-indol-7-yl)-3-amino-2-(4-(hydroxymethyl)phenyl)propanamide], the figures for the 50% inhibitory concentration (IC50) on Recombinant ROCK2 and on Recombinant ROCK1 were 0.27 nM and 0.59 nM, respectively.

In the case of `COc1cccc(C(CN)C(=O)Nc2cccc3c(-c4cn[nH]c4)c[nH]c23)c1` (racemic) [Example 16, N-(3-(1H-pyrazol-4-yl)-1H-indol-7-yl)-3-amino-2-(3-methoxyphenyl)propanamide], the IC50 at Recombinant ROCK2 was 0.37 nM; on Recombinant ROCK1 it was 0.84 nM.

As for `CN1CCN(C(C(=O)Nc2cccc3c(-c4cn[nH]c4)c[nH]c23)c2ccccc2)CC1` (racemic) [Example 46, 2-(4-methylpiperazin-1-yl)-2-phenyl-N-[3-(1H-pyrazol-4-yl)-1H-indol-7-yl]acetamide], the results for the 50% inhibitory concentration (IC50) on Recombinant ROCK2 and at Recombinant ROCK1 were 2.3 nM and 4 nM, respectively.

As to `NCC(C(=O)Nc1cccc2c(-c3cn[nH]c3)c[nH]c12)c1cccc(C(=O)O)c1` (racemic) [Example 70, 3-(2-amino-1-{[3-(1H-pyrazol-4-yl)-1H-indol-7-yl]carbamoyl}ethyl)benzoic acid], the concentration for half-maximal inhibition (IC50) is 0.6 nM on Recombinant ROCK2 and 2.2 nM on Recombinant ROCK1.

In the case of `NCC(C(=O)Nc1cccc2c(-c3cn[nH]c3)c[nH]c12)c1ccc(C(=O)O)cc1` (racemic) [Example 71, 4-(2-amino-1-{[3-(1H-pyrazol-4-yl)-1H-indol-7-yl]carbamoyl}ethyl)benzoic acid], the IC50 on Recombinant ROCK2 was 64 nM; at Recombinant ROCK1, 227 nM.

On to `CN(C)C(=O)c1ccc(C(CN)C(=O)Nc2cccc3c(-c4cn[nH]c4)c[nH]c23)cc1` (racemic) [Example 72, 4-(2-amino-1-{[3-(1H-pyrazol-4-yl)-1H-indol-7-yl]carbamoyl}ethyl)-N,N-dimethylbenzamide], for which the IC50 on Recombinant ROCK2 turned out to be 67 nM; on Recombinant ROCK1, 173 nM.

For the compound `CNC(=O)c1ccc(C(CN)C(=O)Nc2cccc3c(-c4cn[nH]c4)c[nH]c23)cc1` (racemic) [Example 73, 4-(2-amino-1-{[3-(1H-pyrazol-4-yl)-1H-indol-7-yl]carbamoyl}ethyl)-N-methylbenzamide], the IC50 on Recombinant ROCK2 came out at 20 nM; on Recombinant ROCK1, 82 nM.

`NCC(C(=O)Nc1cccc2c(-c3cn[nH]c3)c[nH]c12)c1cccc(CO)c1` (racemic) [Example 75, 3-amino-2-[3-(hydroxymethyl)phenyl]-N-[3-(1H-pyrazol-4-yl)-1H-indol-7-yl]propanamide]: the half-maximal inhibitory concentration (IC50) at Recombinant ROCK2 amounted to 71 nM; at Recombinant ROCK1, 204 nM.

Consider `NCc1cccc(C(CN)C(=O)Nc2cccc3c(-c4cn[nH]c4)c[nH]c23)c1` (racemic) [Example 76, 3-amino-2-[3-(aminomethyl)phenyl]-N-[3-(1H-pyrazol-4-yl)-1H-indol-7-yl]propanamide], for which the IC50 on Recombinant ROCK2 was 7.9 nM; on Recombinant ROCK1, 14 nM.

As for `NCc1ccc(C(CN)C(=O)Nc2cccc3c(-c4cn[nH]c4)c[nH]c23)cc1` (racemic) [Example 77, 3-amino-2-[4-(aminomethyl)phenyl]-N-[3-(1H-pyrazol-4-yl)-1H-indol-7-yl]propanamide], the IC50 on Recombinant ROCK2 amounted to 32 nM; on Recombinant ROCK1, 84 nM.

Consider `CN(C)Cc1cccc(C(CN)C(=O)Nc2cccc3c(-c4cn[nH]c4)c[nH]c23)c1` (racemic) [Example 78, 3-amino-2-{3-[(dimethylamino)methyl]phenyl}-N-[3-(1H-pyrazol-4-yl)-1H-indol-7-yl]propanamide], for which the half-inhibitory concentration (IC50) at Recombinant ROCK2 is 16 nM; at Recombinant ROCK1 it was 34 nM.

Turning to `NCC(C(=O)Nc1cccc2c(-c3cn[nH]c3)c[nH]c12)c1ccc(O)cc1` (racemic) [Example 79, N-(3-(1H-pyrazol-4-yl)-1H-indol-7-yl)-3-amino-2-(4-hydroxyphenyl)-propanamide], the half-inhibitory concentration (IC50) at Recombinant ROCK2 worked out at 1.7 nM; on Recombinant ROCK1 it was 2.9 nM.

Regarding `NCC(C(=O)Nc1cccc2c(-c3cn[nH]c3)c[nH]c12)c1ccc(N)cc1` (racemic) [Example 80, 3-amino-2-(4-aminophenyl)-N-[3-(1H-pyrazol-4-yl)-1H-indol-7-yl]propanamide], the 50% inhibitory concentration (IC50) at Recombinant ROCK2 was 0.18 nM; at Recombinant ROCK1, 0.39 nM.

For `NCC(C(=O)Nc1cccc2c(-c3cn[nH]c3)c[nH]c12)c1cccc(N)c1` (racemic) [Example 81, 3-amino-2-(3-aminophenyl)-N-[3-(1H-pyrazol-4-yl)-1H-indol-7-yl]propanamide], the values for the half-maximal inhibitory concentration (IC50) at Recombinant ROCK2 and at Recombinant ROCK1 were 0.91 nM and 1.8 nM, respectively.

Turning to `COc1cc(OC)cc(C(N)C(=O)Nc2cccc3c(-c4cn[nH]c4)c[nH]c23)c1` (racemic) [Example 83, 2-amino-2-(3,5-dimethoxyphenyl)-N-[3-(1H-pyrazol-4-yl)-1H-indol-7-yl]acetamide], the IC50 was 3.1 nM at Recombinant ROCK2 and 7.3 nM at Recombinant ROCK1.

On to `COc1ccccc1C(CN)C(=O)Nc1cccc2c(-c3cn[nH]c3)c[nH]c12` (racemic) [Example 84, 3-amino-2-(2-methoxyphenyl)-N-[3-(1H-pyrazol-4-yl)-1H-indol-7-yl]propanamide], for which the concentration for half-maximal inhibition (IC50) was 0.96 nM at Recombinant ROCK2 and 1.3 nM at Recombinant ROCK1.

Regarding `NCC(C(=O)Nc1cccc2c(-c3cn[nH]c3)c[nH]c12)c1ccc(F)cc1` (racemic) [Example 85, 3-amino-2-(4-fluorophenyl)-N-[3-(1H-pyrazol-4-yl)-1H-indol-7-yl]propanamide], the values for the half-inhibitory concentration (IC50) at Recombinant ROCK2 and at Recombinant ROCK1 were 0.52 nM and 0.81 nM, respectively.

For the compound `N#Cc1ccc(C(CN)C(=O)Nc2cccc3c(-c4cn[nH]c4)c[nH]c23)cc1` (racemic) [Example 86, 3-amino-2-(4-cyanophenyl)-N-[3-(1H-pyrazol-4-yl)-1H-indol-7-yl]propanamide], the half-maximal inhibitory concentration (IC50) at Recombinant ROCK2 is 0.98 nM; on Recombinant ROCK1 it was 2.7 nM.

For `Cc1cccc(C(CN)C(=O)Nc2cccc3c(-c4cn[nH]c4)c[nH]c23)c1` (racemic) [Example 87, N-(3-(1H-pyrazol-4-yl)-1H-indol-7-yl)-3-amino-2-(m-tolyl)propanamide], the IC50 on Recombinant ROCK2 turned out to be 0.18 nM; at Recombinant ROCK1 it was 0.29 nM.

With `COCCOc1ccc(C(CN)C(=O)Nc2cccc3c(-c4cn[nH]c4)c[nH]c23)cc1` (racemic) [Example 88, 3-amino-2-[4-(2-methoxyethoxy)phenyl]-N-[3-(1H-pyrazol-4-yl)-1H-indol-7-yl]propanamide], the 50% inhibitory concentration (IC50) on Recombinant ROCK2 came out at 9.3 nM; at Recombinant ROCK1, 17 nM.

Take `NCC(C(=O)Nc1cccc2c(-c3cn[nH]c3)c[nH]c12)c1cccc(Cl)c1` (racemic) [Example 89, 3-amino-2-(3-chlorophenyl)-N-[3-(1H-pyrazol-4-yl)-1H-indol-7-yl]propanamide]: the IC50 on Recombinant ROCK2 is 0.66 nM; at Recombinant ROCK1, 1.2 nM.

Turning to `COc1ccc(C(CN)C(=O)Nc2cccc3c(-c4cn[nH]c4)c[nH]c23)cc1` (racemic) [Example 90, 3-amino-2-(4-methoxyphenyl)-N-[3-(1H-pyrazol-4-yl)-1H-indol-7-yl]propanamide], the IC50 at Recombinant ROCK2 worked out at 0.91 nM; on Recombinant ROCK1, 5.3 nM.

In the case of `CC(=O)Nc1ccc(C(CN)C(=O)Nc2cccc3c(-c4cnn(C(=O)OC(C)(C)C)c4)c[nH]c23)cc1` (racemic) [Example 92, tert-butyl 4-{7-[3-amino-2-(4-acetamidophenyl)propanamido]-1H-indol-3-yl}pyrazole-1-carboxylate], the IC50 on Recombinant ROCK2 came out at 6 nM; at Recombinant ROCK1, 16 nM.

Consider `N[C@@H](C(=O)Nc1cccc2c(-c3cn[nH]c3)c[nH]c12)c1ccccc1` [Example 8, (2R)-2-amino-2-phenyl-N-[3-(1H-pyrazol-4-yl)-1H-indol-7-yl]acetamide], for which the half-inhibitory concentration (IC50) at Recombinant ROCK1 turned out to be 20 nM.

Regarding `NC[C@H](C(=O)Nc1cccc2c(-c3cn[nH]c3)c[nH]c12)c1ccccc1` [Example 14, (R)-N-(3-(1H-pyrazol-4-yl)-1H-indol-7-yl)-3-amino-2-phenylpropanamide], the IC50 on Recombinant ROCK1 is 2.2 nM.

With `NC[C@@H](C(=O)Nc1cccc2c(-c3cn[nH]c3)c[nH]c12)c1ccccc1` [Example 15, (S)—N-(3-(1H-pyrazol-4-yl)-1H-indol-7-yl)-3-amino-2-phenylpropanamide], at Recombinant ROCK1, the half-inhibitory concentration (IC50) was 1.4 nM.

As to `Cc1n[nH]cc1-c1c[nH]c2c(NC(=O)[C@H](CN)c3ccccc3)cccc12` [Example 55, (S)-3-amino-N-(3-(3-methyl-1H-pyrazol-4-yl)-1H-indol-7-yl)-2-phenylpropanamide], on Recombinant ROCK1, the 50% inhibitory concentration (IC50) is 2.9 nM.

For `Cc1n[nH]c(C)c1-c1c[nH]c2c(NC(=O)[C@H](CN)c3ccccc3)cccc12` [Example 56, (2S)-3-amino-N-[3-(3,5-dimethyl-1H-pyrazol-4-yl)-1H-indol-7-yl]-2-phenyl-propanamide], the IC50 on Recombinant ROCK1 was 1190 nM.

For `NC[C@@H](C(=O)Nc1cccc2c(-c3c[nH]nc3F)c[nH]c12)c1ccccc1` [Example 57, (S)-3-amino-N-(3-(3-fluoro-1H-pyrazol-4-yl)-1H-indol-7-yl)-2-phenylpropanamide], the IC50 at Recombinant ROCK1 is 2.7 nM.

In the case of `N[C@@H](Cc1c[nH]cn1)C(=O)Nc1cccc2c(-c3cn[nH]c3)c[nH]c12` [Example 108, (2S)-2-amino-3-(1H-imidazol-4-yl)-N-[3-(1H-pyrazol-4-yl)-1H-indol-7-yl]propanamide], at Recombinant ROCK1, the IC50 stood at 98 nM.

On to `COC[C@H](C(=O)Nc1cccc2c(-c3cn[nH]c3)c[nH]c12)N1CCN(C)CC1` [Example 121, (2R)-3-methoxy-2-(4-methylpiperazin-1-yl)-N-[3-(1H-pyrazol-4-yl)-1H-indol-7-yl]propanamide], for which, at Recombinant ROCK1, the half-inhibitory concentration (IC50) turned out to be 75 nM.

Take `N[C@H](Cc1ccccc1)C(=O)Nc1cccc2c(-c3cn[nH]c3)c[nH]c12` [Example 126, (R)-N-(3-(1H-pyrazol-4-yl)-1H-indol-7-yl)-2-amino-3-phenylpropanamide]: on Recombinant ROCK1, the IC50 came out at 6.3 nM.

For `O=C(Nc1cccc2c(-c3cn[nH]c3)c[nH]c12)[C@@H]1CCCN1` [Example 128, (2S)-N-[3-(1H-pyrazol-4-yl)-1H-indol-7-yl]pyrrolidine-2-carboxamide], on Recombinant ROCK1, the IC50 worked out at 111 nM.

For `NC[C@@H](C(=O)Nc1ncnc2c(-c3cn[nH]c3)c[nH]c12)c1ccccc1` [Example 155, (2S)-3-amino-2-phenyl-N-[7-(1H-pyrazol-4-yl)-5H-pyrrolo[3,2-d]pyrimidin-4-yl]propanamide], the IC50 on Recombinant ROCK1 was determined as 0.96 nM.
